Test results taken from ChEMBL document CHEMBL4196033, “Potent hydrazone derivatives targeting esophageal cancer cells” (Eur J Med Chem, 2018).

Assays:
[1] = tested on: MGC-803; test: Antiproliferative activity against human MGC803 cells after 72 hrs by MTT assay; assay type: functional, cell-based; details: MGC-803, 72 h
[2] = tested on: EC9706; test: Induction of apoptosis in human EC9706 cells assessed as necrotic cells at 4 uM after 48 hrs by Annexin V-FITC/propidium iodide staining based flow cytometry (reference value: 1.1 to 1.31%); assay type: functional
[3] = tested on: EC9706; test: Induction of apoptosis in human EC9706 cells assessed as necrotic cells at 4 uM after 48 hrs in presence of caspase inhibitor Z-VAD-FMK by Annexin V-FITC/propidium iodide staining based flow cytometry (reference value: 1.2%); assay type: functional
[4] = tested on: EC9706; test: Induction of apoptosis in human EC9706 cells assessed as early apoptotic cells at 8 uM after 48 hrs in presence of caspase inhibitor Z-VAD-FMK by Annexin V-FITC/propidium iodide staining based flow cytometry (reference value: 0.33%); assay type: functional
[5] = tested on: ECa-109 cell line; test: Induction of apoptosis in human EC109 cells assessed as live cells at 8 uM after 48 hrs in presence of caspase inhibitor Z-VAD-FMK by Annexin V-FITC/propidium iodide staining based flow cytometry (reference value: 96.2%); assay type: functional
[6] = tested on: EC9706; test: Induction of apoptosis in human EC9706 cells assessed as increase in cleaved caspase-8 protein expression after 48 hrs by Western blot analysis; assay type: functional, cell-based
[7] = tested on: EC9706; test: Induction of apoptosis in human EC9706 cells assessed as increase in cleaved caspase-9 protein expression after 48 hrs by Western blot analysis; assay type: functional, cell-based
[8] = tested on: EC9706; test: Induction of apoptosis in human EC9706 cells assessed as increase in cleaved caspase-3 protein expression after 48 hrs by Western blot analysis; assay type: functional, cell-based
[9] = tested on: ECa-109 cell line; test: Induction of apoptosis in human EC109 cells assessed as increase in cleaved caspase-3 protein expression after 48 hrs by Western blot analysis; assay type: functional, cell-based
[10] = tested on: ECa-109 cell line; test: Induction of apoptosis in human EC109 cells assessed as decrease in Bcl2 protein expression after 48 hrs by Western blot analysis; assay type: functional, cell-based

Which IC50 [1] does the source give for COc1ccc(/C=N/NC(=O)c2cccc(S(=O)(=O)N3CCOCC3)c2)c(O)c1 here?
Its IC50 is 2070 nM.

And the Activity [2]?
Its Activity is 0.48 - 16.1%.

What about the Activity [3] of the same compound?
The Activity was 15.2%.

What about the Activity [4] of the same compound?
The Activity was 16.4%.

And the Activity [5]?
The Activity was 26.9%.

And the Activity [6]?
Its Activity is “Dose-dependent effect”.

And the Activity [7]?
The Activity was “Dose-dependent effect”.

What about the Activity [8] of the same compound?
The Activity was “Dose-dependent effect”.

And the Activity [9]?
Its Activity is “Dose-dependent effect”.

And the Activity [10]?
Its Activity is “Dose-dependent effect”.
